Reference: PubChem BioAssay AID602464 (Sanford-Burnham Center for Chemical Genomics, 2012)
The source made the active and inactive calls. Rule as the data show it: active = IC50 below about 20 µM; inactive = the rest.

Each compound was assayed on Gli-responsive luciferase reporter cells, SUFU pathway antagonism (assay: blockers of Gli reporter signaling – cell-based, luciferase luminescence, uHTS hits, dose response (AID 602464)).
For CC(C)(C)[C@H]1COC(=O)[C@H](NC(=O)OCC2c3ccccc3-c3ccccc32)C/C=C\C[C@@H](CC(=O)N(CCO)Cc2ccccc2)C(=O)N1, the IC50 was 11.8 µM. Work on O=C(Cc1ccc(Cl)cc1Cl)Nc1ccncc1 yielded an IC50 of 10.3 µM. Work on COc1cccc(/C=C/c2ccncc2)c1OC yielded an IC50 of 8.95 µM. With Cc1cc(=O)[nH]c(SCC(=O)/C=C2\N(C)c3ccccc3C2(C)C)n1 the IC50 was 5.13 µM. In the case of CCC(C)[C@H]1CN=C(N)N1CCc1cccc2ccccc12 (stereo partly specified), the IC50 is reported as 6.63 µM. In the case of COC(=O)C1=C(c2cc3ccccc3o2)C[C@@H]2CC[C@H]1N2C(=O)N1CCC(C)CC1, the IC50 is reported as 16.3 µM. CCCc1c(CC)c(=N)c2ccccc2n1C gave an IC50 of 12.9 µM. For Cc1cc(Nc2ccc([N+](=O)[O-])cc2)c2ccccc2n1, the IC50 was > 20 µM (inactive). For CN1/C(=C\C=N\NC(=O)c2ccc(O)cc2)C(C)(C)c2ccccc21, the IC50 was 4.34 µM. Compound Cc1ccc(Cl)cc1N1CCN(C(=O)CSc2nnc3n2C(C)(C)Cc2ccccc2-3)CC1 has an IC50 of 7.5 µM. Work on COc1ccc(-c2noc(CCCCC(=O)N3CCN(c4cc(C)ccc4C)CC3)n2)cc1 yielded an IC50 of 4 µM. For CC(=O)c1c(C)[nH]c(C(=O)OCC(=O)Nc2sc3c(c2C#N)CCCC3)c1C, the IC50 was 5.59 µM. With O=C(N[C@@H]1C/C=C\C[C@@H](CC(=O)N(CCO)Cc2ccccc2)C(=O)N[C@@H](c2ccccc2)COC1=O)OCC1c2ccccc2-c2ccccc21 the IC50 was 11.9 µM. COc1ccccc1CCNC(=O)C(=O)NCCC1CCCCN1S(=O)(=O)c1cccs1 (stereo unspecified) showed an IC50 of 8.81 µM. In the case of COCCNc1nc2c(c(=O)n(C)c(=O)n2C)n1Cc1cccc(C)c1, the IC50 is reported as 7.26 µM. For C#CC[N+](C)(C)CCCCCCCCCCCC, the IC50 was 2.51 µM. In the case of C(#Cc1ccccc1)C[N+]1(CC#Cc2ccccc2)CCCC1, the IC50 is reported as 5.3 µM. Compound Cc1c(C(C)C)c(=O)n(-c2ccc(S(=O)(=O)NC3CCCCC3)cc2)n1C has an IC50 of 4.15 µM. Work on COCCn1c(CN2CCC(Cc3ccccc3)CC2)nc2c1c(=O)n(C)c(=O)n2C yielded an IC50 of 4.08 µM. In the case of FC(F)(F)c1ccc(N2CCN(c3cc(-c4ccccc4)nc4ncnn34)CC2)nc1, the IC50 is reported as 3.6 µM. In the case of COc1ccccc1-c1c(-c2ccc(O)cc2O)n[nH]c1C(F)(F)F, the IC50 is reported as 4.86 µM. Compound COc1ccc(OC)c(Cc2cnc3nc(N)nc(N)c3c2C)c1 has an IC50 of 2.8 µM. COc1ccc(-c2c[n+](CC(=O)c3ccccc3)c3n2CCCCC3)cc1 showed an IC50 of 14.1 µM. O=C1N/C(=C\c2ccc(O)cc2)C(O)=C1C=NCc1ccccc1 showed an IC50 of 4.73 µM. Compound CCCn1c2c(c(=N)c3c1CCC3)CCCC2 has an IC50 of 11 µM. Compound COc1ccc(NS(=O)(=O)c2ccc(NC(C)=O)cc2)cc1OC has an IC50 of 7.92 µM. For CCCc1nc(SCC(=O)Nc2nnc(CC)s2)c2c(=O)n(C)c(=O)n(C)c2n1, the IC50 was 8.48 µM. With O=C(c1cc2nc(-c3ccc(F)cc3)cc(C(F)(F)F)n2n1)N1CCCCC1c1cccnc1 (stereo unspecified) the IC50 was > 20 µM (inactive). CCN1C(=O)CCN(C2CCCC2)c2nc(Nc3ccc(C(=O)NC4CCN(C)CC4)cc3OC)ncc21 showed an IC50 of 3.45 µM. Cc1cccc(CCN2C(N(C)C)=NC[C@@H]2CC(C)C)c1 was tested, and the IC50 was 10.3 µM. In the case of O=S(=O)(NCc1ccncc1)c1ccc(S(=O)(=O)NCC2CCCO2)cc1 (stereo unspecified), the IC50 is reported as 11.5 µM. With O=C(Cn1cc(C(=O)c2ccco2)c2ccccc21)Nc1ccccc1F the IC50 was 4.27 µM. Work on O=C(Nc1cc(N2CCCCC2)ncn1)c1ccccc1 yielded an IC50 of 0.294 µM. CCN(CC(=O)Nc1c(F)cccc1F)C(=O)c1cc(S(=O)(=O)N(CC)CC)ccc1N1CCCCC1 showed an IC50 of 12.2 µM. CCCCn1c(CN(C)Cc2ccccc2)nc2c1c(=O)n(C)c(=O)n2C showed an IC50 of 6.85 µM. Work on COc1ccc(Cn2c(-c3ccc(Cl)cc3)c[n+]3ccccc23)cc1 yielded an IC50 of 7.28 µM. Work on COc1ccc(-n2c(-c3ccc(Cl)cc3)c[n+]3c2CCc2ccccc2-3)cc1 yielded an IC50 of 1.78 µM. With COc1ccc(CNc2ncnc3c2[nH]c2ccccc23)cc1 the IC50 was 2.79 µM. With Cc1nc2ccccc2n1Cc1ccc(Br)cc1 the IC50 was 4.73 µM. Work on CC(=O)c1c(C)[nH]c(C(=O)OCC(=O)Nc2cccc(S(=O)(=O)N3CCCC3)c2)c1C yielded an IC50 of 6.51 µM. With Cc1c(CCOC(=O)C23CC4CC(CC(C)(C4)C2)C3)sc[n+]1Cc1ccccc1 the IC50 was > 20 µM (inactive).
